Results on 20 compounds are retold here after patent EP4678629A1, “IONIZABLE LIPID MOLECULE, PREPARATION METHOD THEREFOR AND USE THEREOF” (Maxirna (Shanghai) Pharmaceutical Co., Ltd., priority 2023, dated 2024).

Data set [1] can be described thus: Encapsulation efficiency of the lipid nanoparticle (eGFP mRNA) by Ribogreen method. To be noted: LNP encapsulating eGFP mRNA, ionizable lipid/DOPE/cholesterol/DMG-PEG2000 50/10/48.25/1.25 mol%, N/P 12. It is filed as physicochemical. The method in brief:
(§1)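 LNPs were made by microfluidic mixing of ionizable lipid/DOPE/cholesterol/DMG-PEG2000 (50/10/48.25/1.25 mol%) in ethanol with eGFP mRNA in 20 mM citrate pH 6.1, N/P 12, then ultrafiltered into DPBS and 0.2 µm filtered. Size and PDI by DLS at 173° backscatter; encapsulation by Ribogreen.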

Data set [2] is described as follows: Size and polydispersity index (PDI) of the lipid nanoparticle by dynamic light scattering. The data set is classed as physicochemical. To be noted: LNP encapsulating eGFP mRNA, ionizable lipid/DOPE/cholesterol/DMG-PEG2000 50/10/48.25/1.25 mol%, N/P 12; for Particle size: in nm (unit assumed). The method in brief:
as §1

The nature of data set [3]: In vitro transfection of cells with eGFP-mRNA lipid nanoparticle (LNP preparation), fluorescence imaging and flow cytometry. It is filed as cell-based, mouse. The conditions noted are these: mouse, dc2.4 cells, 200 ng of mRNA per well, after 24 hours; read-out: Cell viability, %. Summed up: (§2)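 Mouse bone marrow-derived DC2.4 dendritic cells seeded at 2 × 10^5 cells/well in DMEM with 10% FBS, transfected with eGFP-mRNA LNPs the next day at 37 °C, 5% CO2. After 24 hours, viability, eGFP-positive rate and mean fluorescence intensity read by fluorescence imaging and flow cytometry.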
In general terms: Flow cytometry measures light scatter and fluorescence of single cells or particles in a stream.

In another data set the test system is DC2.4 cells. The data set is described as above. It is filed as cell-based, mouse. The conditions noted are these: eGFP positivity rate, DC2.4 cells, 200 ng of mRNA per well, after 24 hours. The method in brief:
as §2

For the compound `CCCCCCCCCCCOC(=O)CCN(CCO)CCCN(CCC(=O)OCCCCCCCCCCC)CCC(=O)OCCCCCCCCCCC` [Example 67, Diundecyl 3,3'-((3-((2-hydroxyethyl)(3-oxo-3-(undecyloxy)propyl)amino)propyl)azanediyl)dipropionate], the “Encapsulation rate, %” value in data set [1] is given as 66.08%. Also, in data set [2], the PDI turned out to be 0.20 and the Particle size amounted to 86.08. Also, in data set [3], the viability at 24 h was found to be 95.8%. For the same compound, in the data set with DC2.4 cells, the “Positive rate, %” value was 98.32%.

Consider `CCCCCCCCCCCOC(=O)CCN(CCCO)CCCN(CCC(=O)OCCCCCCCCCCC)CCC(=O)OCCCCCCCCCCC` [Example 68, Diundecyl 3,3'-((3-((3-hydroxypropyl)(3-oxo-3-(undecyloxy)propyl)amino)propyl)azanediyl)dipropionate], for which the “Encapsulation rate, %” value in data set [1] was determined as 95.99%. Moreover, in data set [2], the PDI turned out to be 0.18. Besides, the viability at 24 h in data set [3] came out at 94.9%. In addition, in the data set on DC2.4 cells, the “Positive rate, %” value was 98.77%.

In the case of `CCCCCCCCCCCOC(=O)CCN(CCCCO)CCCN(CCC(=O)OCCCCCCCCCCC)CCC(=O)OCCCCCCCCCCC` [Example 69, Diundecyl 3,3'-((3-((4-hydroxybutyl)(3-oxo-3-(undecyloxy)propyl)amino)propyl)azanediyl)dipropionate], in data set [1], the “Encapsulation rate, %” value came out at 85.47%. Also, the PDI in data set [2] turned out to be 0.13. The viability at 24 h in data set [3] was determined as 91.9%. In addition, the “Positive rate, %” value in the data set on DC2.4 cells was 97.10%.

Take `CCCCCCCCCCCCCOC(=O)CCN(CCO)CCCN(CCC(=O)OCCCCCCCCCCCCC)CCC(=O)OCCCCCCCCCCCCC` [Example 70, Ditridecyl 3,3'-((3-((2-hydroxyethyl)(3-oxo-3-(tridecyloxy)propyl)amino)propyl)azanediyl)dipropionate]: in data set [1], the “Encapsulation rate, %” value came out at 97.26%. The compound further showed a PDI in data set [2] of 0.11. For the same compound, the viability at 24 h in data set [3] stood at 91.2%. Moreover, the “Positive rate, %” value in the data set on DC2.4 cells came out at 99.07%.

Regarding `CCCCCCCCCCCCCOC(=O)CCN(CCCO)CCCN(CCC(=O)OCCCCCCCCCCCCC)CCC(=O)OCCCCCCCCCCCCC` [Example 71, Ditridecyl 3,3'-((3-((3-hydroxypropyl)(3-oxo-3-(tridecyloxy)propyl)amino)propyl)azanediyl)dipropionate], the “Encapsulation rate, %” value in data set [1] is 98.30%. Moreover, in data set [2], the PDI is recorded as 85.88 and the Particle size was found to be 98.30. The viability at 24 h in data set [3] was 97.3%. Moreover, the “Positive rate, %” value in the data set on DC2.4 cells worked out at 98.99%.

For `CCCCCCCCCCCCCOC(=O)CCN(CCCCO)CCCN(CCC(=O)OCCCCCCCCCCCCC)CCC(=O)OCCCCCCCCCCCCC` [Example 72, Ditridecyl 3,3'-((3-((4-hydroxybutyl)(3-oxo-3-(tridecyloxy)propyl)amino)propyl)azanediyl)dipropionate], in data set [1], the “Encapsulation rate, %” value was 99.70%. In data set [2], the Particle size is listed as 99.70. Moreover, in data set [3], the viability at 24 h was found to be 84%. Further, in the data set with DC2.4 cells, the “Positive rate, %” value is recorded as 81.19%.

Take `CCCCCCCCCCCOC(=O)CN(CCO)CCCN(CC(=O)OCCCCCCCCCCC)CC(=O)OCCCCCCCCCCC` [Example 73, Diundecyl 2,2'-((3-((2-hydroxyethyl)(2-oxo-2-(undecyloxy)ethyl)amino)propyl)azanediyl)diacetate]: the “Encapsulation rate, %” value in data set [1] is on record as 85.54%. This compound also gave a Particle size in data set [2] of 85.54. The viability at 24 h in data set [3] came to 84.1%. For the same compound, in the data set on DC2.4 cells, the “Positive rate, %” value came out at 97.94%.

Regarding `CCCCCCCCCCCOC(=O)CN(CCCO)CCCN(CC(=O)OCCCCCCCCCCC)CC(=O)OCCCCCCCCCCC` [Example 74, Diundecyl 2,2'-((3-((3-hydroxypropyl)(2-oxo-2-(undecyloxy)ethyl)amino)propyl)azanediyl)diacetate], the “Encapsulation rate, %” value in data set [1] is reported as 96.91%. This compound also showed a Particle size in data set [2] of 96.91. Besides, in data set [3], the viability at 24 h was 71%. In the data set with DC2.4 cells, the “Positive rate, %” value is 91.81%.

As to `CCCCCCCCCCCOC(=O)CN(CCCCO)CCCN(CC(=O)OCCCCCCCCCCC)CC(=O)OCCCCCCCCCCC` [Example 75, Diundecyl 2,2'-((3-((4-hydroxybutyl)(2-oxo-2-(undecyloxy)ethyl)amino)propyl)azanediyl)diacetate], the “Encapsulation rate, %” value in data set [1] is on record as 99.22%. In addition, in data set [2], the PDI is given as 60.95 and the Particle size came out at 99.22. Also, the viability at 24 h in data set [3] stood at 90.3%. Further, in the data set on DC2.4 cells, the “Positive rate, %” value was determined as 91.29%.

Turning to `CCCCCCCCCCCCCOC(=O)CN(CCO)CCCN(CC(=O)OCCCCCCCCCCCCC)CC(=O)OCCCCCCCCCCCCC` [Example 76, Ditridecyl 2,2'-((3-((2-hydroxyethyl)(2-oxo-2-(tridecyloxy)ethyl)amino)propyl)azanediyl)diacetate], the “Encapsulation rate, %” value in data set [1] was found to be 96.23%. Besides, the Particle size in data set [2] turned out to be 74.60. Moreover, in data set [3], the viability at 24 h is 95%. Moreover, the “Positive rate, %” value in the data set on DC2.4 cells is listed as 98.01%.

As for `CCCCCCCCCCCCCOC(=O)CN(CCCO)CCCN(CC(=O)OCCCCCCCCCCCCC)CC(=O)OCCCCCCCCCCCCC` [Example 77, Ditridecyl 2,2'-((3-((3-hydroxypropyl)(2-oxo-2-(tridecyloxy)ethyl)amino)propyl)azanediyl)diacetate], in data set [1], the “Encapsulation rate, %” value turned out to be 99.78%. For the same compound, in data set [2], the PDI is given as 70.33 and the Particle size came out at 99.78. Further, the viability at 24 h in data set [3] amounted to 83.9%. Moreover, the “Positive rate, %” value in the data set on DC2.4 cells stood at 90.71%.

Turning to `CCCCCCCCCCCCCOC(=O)CN(CCCCO)CCCN(CC(=O)OCCCCCCCCCCCCC)CC(=O)OCCCCCCCCCCCCC` [Example 78, Ditridecyl 2,2'-((3-((4-hydroxybutyl)(2-oxo-2-(tridecyloxy)ethyl)amino)propyl)azanediyl)diacetate], the “Encapsulation rate, %” value in data set [1] is 99.86%. Also, in data set [2], the PDI is recorded as 53.66 and the Particle size is 99.86. Besides, the viability at 24 h in data set [3] came out at 91.7%. Also, the “Positive rate, %” value in the data set on DC2.4 cells worked out at 81.35%.

With `CCCCC/C=C\C/C=C\CCCCCCCCOC(=O)CCCN(CCO)CCCN(CCCC(=O)OCCCCCCCC/C=C\C/C=C\CCCCC)CCCC(=O)OCCCCCCCC/C=C\C/C=C\CCCCC` [Example 80, Di((9Z,12Z)-octadeca-9,12-dien-1-yl)4,4'-((3-((2-hydroxyethyl)(4-(((9Z,12Z)-octadeca-9,12-dien-1-yl)oxo)-4-oxobutyl)amino)propyl)azanediyl)dibutanoate], the “Encapsulation rate, %” value in data set [1] was 99.14%. Further, the Particle size in data set [2] came out at 99.14. Moreover, the viability at 24 h in data set [3] was found to be 87.3%. The “Positive rate, %” value with DC2.4 cells is recorded as 94.60%.

Take `CCCCCCCCCCCOC(=O)CCCN(CCCO)CCCCN(CCCC(=O)OCCCCCCCCCCC)CCCC(=O)OCCCCCCCCCCC` [Example 82, Diundecyl 4,4'-((4-((3-hydroxypropyl)(4-oxo-4-(undecyloxy)butyl)amino)butyl)azanediyl)dibutanoate]: the “Encapsulation rate, %” value in data set [1] is listed as 99.74%. In data set [2], this compound registered a PDI of 92.91 and a Particle size of 99.74. The viability at 24 h in data set [3] turned out to be 76%. The “Positive rate, %” value with DC2.4 cells was determined as 96.72%.

As for `CCCCCCCCCCCOC(=O)CCCN(CCCO)CCCCCN(CCCC(=O)OCCCCCCCCCCC)CCCC(=O)OCCCCCCCCCCC` [Example 83], the “Encapsulation rate, %” value in data set [1] was determined as 99.79%. In data set [2], the PDI is 73.54 and the Particle size was 99.79. Moreover, the viability at 24 h in data set [3] stood at 84.2%. Also, the “Positive rate, %” value with DC2.4 cells is given as 97.05%.

Consider `CCCCCCCCCCOC(=O)CCCN(CCCO)CCCCN(CCCC(=O)OCCCCCCCCCC)CCCC(=O)OCCCCCCCCCC` [Example 86], for which the “Encapsulation rate, %” value in data set [1] is given as 94.50%. In data set [2], the PDI amounted to 0.13 and the Particle size is given as 88.62. Further, the viability at 24 h in data set [3] is 93%. For the same compound, the “Positive rate, %” value with DC2.4 cells was 94.18%.

For the compound `CCCCCCCCCCCOC(=O)CCCN(CCO)CCCCN(CCCC(=O)OCCCCCCCCCCC)CCCC(=O)OCCCCCCCCCCC` [Example 87], the “Encapsulation rate, %” value in data set [1] is recorded as 92.26%. In data set [2], this compound gave a PDI of 0.12 and a Particle size of 72.55. In addition, in data set [3], the viability at 24 h amounted to 97.5%. Also, the “Positive rate, %” value in the data set on DC2.4 cells worked out at 96.15%.

For `CCCCCCCCCCOC(=O)CCCN(CCO)CCCN(CCCC(=O)OCCCCCCCCCC)CCCC(=O)OCCCCCCCCCC` [Example 93, Decyl 4-(20-(2-hydroxyethyl)-12,24-dioxo-16,20-diaza-11,25-dioxapentatriacontane-16-yl)butanoate], in data set [1], the “Encapsulation rate, %” value is 93.28%. In addition, in data set [2], the PDI was 0.17 and the Particle size was found to be 98.21. The viability at 24 h in data set [3] is 82.6%. The “Positive rate, %” value in the data set on DC2.4 cells stood at 85.37%.

Take `CCCCCCCCCCCCOC(=O)CCCN(CCO)CCCN(CCCC(=O)OCCCCCCCCCCCC)CCCC(=O)OCCCCCCCCCCCC` [Example 94, Dodecyl 4-(22-(2-hydroxyethyl)-14,26-dioxo-18,22-diaza-13,27-dioxanonatriacontane-18-yl)butanoate]: in data set [1], the “Encapsulation rate, %” value was 96.63%. In data set [2], this compound displayed a PDI of 0.19. Besides, in data set [3], the viability at 24 h was determined as 98.6%. For the same compound, the “Positive rate, %” value in the data set on DC2.4 cells is given as 88.07%.

On to `CCCCC/C=C\C/C=C\CCCCCCCCOC(=O)CCCCCCCN(CCCO)CCCN(CCCCCCCC(=O)OCCCCCCCC/C=C\C/C=C\CCCCC)CCCCCCCC(=O)OCCCCCCCC/C=C\C/C=C\CCCCC` [Example 95], for which the “Encapsulation rate, %” value in data set [1] was 92.93%. For the same compound, the PDI in data set [2] was 0.11. Moreover, the viability at 24 h in data set [3] was found to be 95.9%. In the data set with DC2.4 cells, the “Positive rate, %” value is 93.13%.

Broadly, the viability is the share of living cells, or the viability signal relative to a control.
